Results on 7 molecules are retold here after PubChem BioAssay (NCI).

Test systems include UACC-62 melanoma; A549 NSCLC; K-562 leukemia; DU-145 prostate; U251 CNS; SN12C renal; UO-31 renal; UACC-257 melanoma; EKVX NSCLC; BT-549 breast.
Common to all, as to experiment: growth of human tumour cells (NCI), 48 h

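96-well plates; 48 h exposure; 5 concentrations. Endpoints by linear interpolation between flanking doses. Not reached: highest tested concentration assigned. GI50 is the concentration that inhibits growth by half. TGI is the concentration that stops growth completely.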

`Cc1cc(C)c(O)c(CN(C)Cc2cc(Cl)cc(Cl)c2O)c1`: the GI50 with UACC-62 melanoma is 3.42 µM; in the assay with A549 NSCLC it was 5.41 µM; in the assay with K-562 leukemia it was 3.54 µM; in the assay on DU-145 prostate, 6.37 µM; in the assay with U251 CNS, 4.01 µM; with SN12C renal it was 4.81 µM. Besides, the GI50 in the assay on UO-31 renal was 1.64 µM; in the assay on UACC-257 melanoma it was 3.14 µM; in the assay on EKVX NSCLC, 4.52 µM; with BT-549 breast, 11.8 µM. Moreover, the TGI with UACC-62 melanoma was 13.1 µM; in the assay on A549 NSCLC, 28.5 µM; in the assay with K-562 leukemia, more than 100 µM; with DU-145 prostate it was 20.8 µM; in the assay with U251 CNS, 17.1 µM; in the assay with SN12C renal, 20.4 µM. Besides, the TGI with UO-31 renal worked out at 6.58 µM; in the assay with UACC-257 melanoma, 12.1 µM; with EKVX NSCLC it was 30.7 µM; with BT-549 breast it was 27.3 µM.
Take `C#Cc1c(C(N)=O)ncn1C1OC(COP(=O)(OCc2ccc([N+](=O)[O-])o2)N(C)CCCCCl)C(O)C1O` (stereo not given): the GI50 is more than 100 µM in the assay with UACC-62 melanoma; 28.5 µM in the assay with A549 NSCLC; 74.2 µM in the assay on K-562 leukemia; 7.83 µM in the assay on DU-145 prostate; 53.9 µM in the assay with U251 CNS; 48.3 µM in the assay on SN12C renal. The GI50 in the assay with UO-31 renal is 34.8 µM; in the assay with UACC-257 melanoma, 35.2 µM; with EKVX NSCLC it was 82.9 µM; in the assay with BT-549 breast, 37.8 µM. The TGI in the assay with UACC-62 melanoma, in the assay on A549 NSCLC, in the assay on K-562 leukemia, in the assay with DU-145 prostate, in the assay on U251 CNS and with SN12C renal was more than 100 µM throughout. Moreover, the TGI in the assay on UO-31 renal, in the assay with UACC-257 melanoma, in the assay on EKVX NSCLC and with BT-549 breast was more than 100 µM each time.
With `Cc1ccc2c(O)c(O)cc(NC(C)CCCN)c2n1` (stereo not given), the GI50 in the assay with UACC-62 melanoma was 27.3 µM; with A549 NSCLC, 24.3 µM; with K-562 leukemia, 12.3 µM; in the assay with DU-145 prostate it was 10.5 µM; with U251 CNS, 3.67 µM; with SN12C renal, 3.89 µM. The GI50 in the assay with UO-31 renal is 7.77 µM; in the assay with UACC-257 melanoma, 19.8 µM; in the assay with EKVX NSCLC it was 25.3 µM; in the assay on BT-549 breast, 32.1 µM. Further, the TGI with UACC-62 melanoma was more than 66.8 µM; in the assay on A549 NSCLC, more than 100 µM; in the assay with K-562 leukemia, 60.4 µM; in the assay with DU-145 prostate, 31.4 µM; with U251 CNS, 14.8 µM; with SN12C renal, 24.8 µM. Also, the TGI was 43 µM with UO-31 renal, 54.5 µM with UACC-257 melanoma, more than 83.1 µM in the assay with EKVX NSCLC and more than 68.6 µM with BT-549 breast.
Regarding `C=C1C(=O)O[C@H]2[C@H]1CC/C(COC(=O)NCCc1c[nH]c3ccc(OC)cc13)=C\CC[C@@]1(C)O[C@@H]21`, the GI50 in the assay with UACC-62 melanoma is 1.72 µM; in the assay on A549 NSCLC, 4.58 µM; in the assay with K-562 leukemia, 0.453 µM; with DU-145 prostate, 1.61 µM; in the assay with U251 CNS, 4.3 µM; in the assay with SN12C renal, 1.81 µM. Moreover, the GI50 in the assay with UO-31 renal is 1.46 µM; in the assay with UACC-257 melanoma, 1.52 µM; in the assay on EKVX NSCLC it was 1.94 µM; in the assay on BT-549 breast, 1.4 µM. Moreover, the TGI amounted to 3.77 µM with UACC-62 melanoma; 18.4 µM with A549 NSCLC; 3.29 µM in the assay on K-562 leukemia; 4.43 µM in the assay on DU-145 prostate; 15.9 µM in the assay on U251 CNS; 3.8 µM with SN12C renal. Moreover, the TGI with UO-31 renal is 2.77 µM; with UACC-257 melanoma, 3.3 µM; in the assay with EKVX NSCLC it was 5.45 µM; in the assay on BT-549 breast, 3.13 µM.
For `O=C(c1ccco1)c1c(C(F)(F)F)n([O-])c2ccccc2[n+]1=O`, the GI50 with UACC-62 melanoma is 0.536 µM; in the assay on A549 NSCLC, 3.18 µM; in the assay with K-562 leukemia, 0.207 µM; with DU-145 prostate, 0.367 µM; with U251 CNS, 0.719 µM; with SN12C renal it was 0.618 µM. Further, the GI50 with UO-31 renal is 0.755 µM; with UACC-257 melanoma it was 4.32 µM; in the assay on EKVX NSCLC, 0.226 µM; with BT-549 breast, 1.31 µM. The TGI is 2.61 µM in the assay with UACC-62 melanoma; 27.7 µM in the assay with A549 NSCLC; 3.43 µM in the assay with K-562 leukemia; 0.969 µM in the assay on DU-145 prostate; 18.2 µM in the assay with U251 CNS; 3.1 µM in the assay with SN12C renal. In addition, the TGI was determined as 2.03 µM in the assay with UO-31 renal, 14.7 µM with UACC-257 melanoma, 0.741 µM in the assay with EKVX NSCLC and 3.81 µM with BT-549 breast.
With `COc1ccccc1C#Cc1ccccc1C#CCCCCCC#Cc1ccccc1C#Cc1ccccc1OC`, the GI50 with UACC-62 melanoma was more than 100 µM; in the assay with A549 NSCLC, more than 100 µM; in the assay on K-562 leukemia, 31 µM; in the assay with DU-145 prostate it was more than 100 µM; in the assay on U251 CNS it was 97.1 µM; in the assay with SN12C renal, more than 100 µM. Besides, the GI50 with UO-31 renal, with UACC-257 melanoma, in the assay on EKVX NSCLC and in the assay with BT-549 breast was more than 100 µM throughout. Further, the TGI in the assay on UACC-62 melanoma, in the assay with A549 NSCLC, in the assay with K-562 leukemia, in the assay with DU-145 prostate, with U251 CNS and with SN12C renal was more than 100 µM in each case. Also, the TGI in the assay on UO-31 renal, with UACC-257 melanoma, in the assay with EKVX NSCLC and in the assay with BT-549 breast was more than 100 µM each time.
Turning to `O=C(O)c1ccc(N/C=C2\C(=O)c3ccccc3OC2O)cc1O` (stereo not given), the GI50 in the assay with UACC-62 melanoma is 17.4 µg/mL; with A549 NSCLC it was 55.1 µg/mL; in the assay with K-562 leukemia it was 16 µg/mL; with DU-145 prostate it was 22.7 µg/mL; in the assay with U251 CNS, 17.2 µg/mL; in the assay on SN12C renal it was 20.2 µg/mL. The GI50 with UO-31 renal is 6.68 µg/mL; in the assay on UACC-257 melanoma it was 28.9 µg/mL; with EKVX NSCLC, 23.9 µg/mL; with BT-549 breast it was 19 µg/mL. The TGI with UACC-62 melanoma was 52.4 µg/mL; in the assay with A549 NSCLC, more than 150 µg/mL; in the assay on K-562 leukemia, 87.2 µg/mL; in the assay with DU-145 prostate, 65.6 µg/mL; with U251 CNS, 45.1 µg/mL; with SN12C renal, 58.8 µg/mL. Besides, the TGI in the assay on UO-31 renal was 36.4 µg/mL; with UACC-257 melanoma it was 93.1 µg/mL; in the assay with EKVX NSCLC, 82.5 µg/mL; in the assay with BT-549 breast it was 71.2 µg/mL.
